Measurements published in patent publication US20080070986A1, “ALKYLETHER CITRATES FOR SELECTIVELY CLEANING THE SKIN” (priority 2006, published 2008).

Tests used:
Assay in all cases: Minimum inhibiting concentration (MIC), dilution series to DIN 58940 and DIN 58944
Type in all cases: cell-based
Propionibacterium acnes = system: Propionibacterium acnes; design: Minimum inhibiting concentration: unit not given here; conditions: for Minimum inhibiting concentration: test solution 10% active substance
Procedure: (§1) The scale of an antimicrobial effect of surfactants can be established in a biological test system in which the minimum inhibiting concentration (MIC) is comparatively determined under laboratory conditions. In a dilution series of the test substance, the MIC is just that concentration at which no further growth is possible. The milder a surfactant, the higher the MIC value. The minimum inhibiting concentration of various surfactants was determined for three microorganisms occurring on the skin (Table 1). The surfactants are referred to by their names under the INCI nomenclature. [table] [table]

[1] = system: Staphylococcus epidermidis; design: Minimum inhibiting concentration: unit not given here; conditions: for Minimum inhibiting concentration: test solution 10% active substance
Procedure: as §1

Malassezia furfur = system: Malassezia furfur; design: unit not given here; conditions: test solution 10% active substance
Procedure: as §1

[2] = in words, versus the other surfactants of Table 1

Substance | Minimum inhibiting concentration (Propionibacterium acnes; pH 6.5, single surfactants) | Minimum inhibiting concentration ([1]; pH 6.5, single surfactants) | Minimum inhibiting concentration (Malassezia furfur; pH 6.5, single surfactants) | Minimum inhibiting concentration (Propionibacterium acnes; surfactant combinations) | Minimum inhibiting concentration ([1]; surfactant combinations) | Minimum inhibiting concentration (Malassezia furfur; surfactant combinations) | Inhibition compared with the other surfactants (Propionibacterium acnes; [2]) | Inhibition compared with the other surfactants [1, 2]
Lauryl Glucoside | 0.05 | 0.5 | >0.5 | – | – | – | – | –
Sodium Laureth Sulfate | 0.05 | 0.5 | >0.5 | 0.05 | 0.5 | ≧1 | – | –
Cocamidopropyl betaine | 0.05 | 0.1 | >0.5 | – | – | – | – | –
Laureth-7 Citrate | >0.5 | >0.5 | >0.5 | ≧1 | ≧1 | ≧1 | only inhibited at considerably higher concentrations | only inhibited at considerably higher concentrations
